Values joined by “and” are separate entries in the source; they are usually repeats but may differ in a detail not shown here. Identical values can stand only once.
Settings: Liquid; for viscosity: Falling or rolling sphere viscometry; for mass density: 101.33 kPa

CC(C)CCCC(C)CCCC(C)CCCCC(C)CCCC(C)CCCC(C)C (stereo not given) [2,6,10,15,19,23-hexamethyltetracosane]
Settings | viscosity
273.15 K, 100 kPa | 116 mPa·s and 116.2 mPa·s
273.15 K, 600 kPa | 121.9 mPa·s
273.15 K, 10600 kPa | 159.6 mPa·s
273.15 K, 20600 kPa | 208 mPa·s
273.15 K, 30700 kPa | 267.6 mPa·s
273.15 K, 41400 kPa | 348.4 mPa·s
273.15 K, 50500 kPa | 442.3 mPa·s
283.15 K, 100 kPa | 59.25 mPa·s and 59.27 mPa·s
283.15 K, 9600 kPa | 76.31 mPa·s
283.15 K, 19900 kPa | 97.69 mPa·s
283.15 K, 25810 kPa | 115.2 mPa·s
283.15 K, 50880 kPa | 206.5 mPa·s
283.15 K, 76760 kPa | 360.6 mPa·s
283.15 K, 100400 kPa | 573.5 mPa·s
293.15 K, 100 kPa | 35.97 mPa·s and 35.96 mPa·s
298.15 K, 100 kPa | 28.45 mPa·s [middle of 6 runs]
298.15 K, 700 kPa | 28.57 mPa·s
298.15 K, 800 kPa | 28.67 mPa·s
298.15 K, 10800 kPa | 35.77 mPa·s
298.15 K, 20600 kPa | 44.2 mPa·s
298.15 K, 26000 kPa | 49.37 mPa·s
298.15 K, 30800 kPa | 54.49 mPa·s
298.15 K, 40200 kPa | 65.84 mPa·s
298.15 K, 50100 kPa | 80.08 mPa·s
298.15 K, 50600 kPa | 81.24 mPa·s
298.15 K, 51600 kPa | 84.03 mPa·s
298.15 K, 60700 kPa | 98.21 mPa·s
298.15 K, 70700 kPa | 118.8 mPa·s
298.15 K, 74700 kPa | 129.5 mPa·s
298.15 K, 75800 kPa | 130.3 mPa·s
298.15 K, 80500 kPa | 142.3 mPa·s
298.15 K, 98800 kPa | 200.7 mPa·s
298.15 K, 100100 kPa | 201.8 mPa·s
298.15 K, 125900 kPa | 315.8 mPa·s
298.15 K, 150000 kPa | 465.7 mPa·s
298.15 K, 150100 kPa | 473.5 mPa·s
303.15 K, 100 kPa | 22.58 mPa·s and 22.86 mPa·s and 22.84 mPa·s
313.15 K, 100 kPa | 15.16 mPa·s [middle of 6 runs]
313.15 K, 800 kPa | 15.15 mPa·s
313.15 K, 10700 kPa | 18.58 mPa·s
313.15 K, 20600 kPa | 22.64 mPa·s
313.15 K, 30700 kPa | 27.33 mPa·s
313.15 K, 40500 kPa | 32.69 mPa·s
313.15 K, 50200 kPa | 39.01 mPa·s
313.15 K, 60600 kPa | 46.76 mPa·s
313.15 K, 70600 kPa | 55.53 mPa·s
313.15 K, 80600 kPa | 65.68 mPa·s
313.15 K, 91700 kPa | 78.58 mPa·s
313.15 K, 112400 kPa | 108.9 mPa·s
313.15 K, 131700 kPa | 145.3 mPa·s
313.15 K, 151600 kPa | 192.8 mPa·s
313.15 K, 151900 kPa | 196.8 mPa·s
313.15 K, 168600 kPa | 250 mPa·s
313.15 K, 175400 kPa | 276.7 mPa·s
313.15 K, 190000 kPa | 336.9 mPa·s
313.15 K, 190100 kPa | 340.1 mPa·s
313.15 K, 199800 kPa | 379.2 mPa·s
313.15 K, 210400 kPa | 433.8 mPa·s
313.15 K, 227900 kPa | 549.9 mPa·s
313.15 K, 241700 kPa | 669.3 mPa·s
313.15 K, 261500 kPa | 863.8 mPa·s
313.15 K, 279800 kPa | 1065 mPa·s
313.15 K, 300500 kPa | 1395 mPa·s
323.15 K, 100 kPa | 10.73 mPa·s and 10.71 mPa·s and 10.69 mPa·s
333.15 K, 100 kPa | 7.856 mPa·s and 7.861 mPa·s
338.15 K, 100 kPa | 6.785 mPa·s
338.15 K, 9700 kPa | 8.064 mPa·s
338.15 K, 22100 kPa | 9.958 mPa·s
338.15 K, 30100 kPa | 11.36 mPa·s
338.15 K, 40600 kPa | 13.4 mPa·s
338.15 K, 40800 kPa | 13.45 mPa·s
338.15 K, 50300 kPa | 15.55 mPa·s
338.15 K, 60000 kPa | 17.98 mPa·s
338.15 K, 60700 kPa | 17.92 mPa·s
338.15 K, 80700 kPa | 24.24 mPa·s
338.15 K, 100600 kPa | 32.02 mPa·s
338.15 K, 120400 kPa | 41.62 mPa·s
338.15 K, 140400 kPa | 53.67 mPa·s
338.15 K, 160300 kPa | 69.03 mPa·s
338.15 K, 175300 kPa | 82.43 mPa·s
338.15 K, 199800 kPa | 111 mPa·s
338.15 K, 226500 kPa | 150.6 mPa·s
338.15 K, 246000 kPa | 184.6 mPa·s
338.15 K, 255100 kPa | 201.5 mPa·s
338.15 K, 274800 kPa | 252.5 mPa·s
338.15 K, 275200 kPa | 246.9 mPa·s
338.15 K, 300000 kPa | 321.5 mPa·s
338.15 K, 303600 kPa | 337.4 mPa·s
338.15 K, 324900 kPa | 416.3 mPa·s
338.15 K, 350600 kPa | 540.2 mPa·s
338.15 K, 373000 kPa | 677.2 mPa·s
343.15 K, 100 kPa | 5.979 mPa·s [middle of 4 runs]
348.15 K, 100 kPa | 5.281 mPa·s and 5.28 mPa·s and 5.248 mPa·s
348.15 K, 9700 kPa | 6.195 mPa·s
348.15 K, 20600 kPa | 7.41 mPa·s
348.15 K, 30800 kPa | 8.689 mPa·s
348.15 K, 40900 kPa | 10.14 mPa·s
348.15 K, 50400 kPa | 11.63 mPa·s
348.15 K, 60400 kPa | 13.25 mPa·s
348.15 K, 60500 kPa | 13.45 mPa·s
348.15 K, 70300 kPa | 15.23 mPa·s
348.15 K, 70900 kPa | 15.5 mPa·s
348.15 K, 80100 kPa | 17.89 mPa·s
348.15 K, 80300 kPa | 17.39 mPa·s
348.15 K, 90300 kPa | 19.95 mPa·s
348.15 K, 90600 kPa | 20.48 mPa·s
348.15 K, 100100 kPa | 22.65 mPa·s
348.15 K, 100800 kPa | 23.18 mPa·s
348.15 K, 200500 kPa | 71.69 mPa·s
348.15 K, 225500 kPa | 93.81 mPa·s
348.15 K, 250300 kPa | 121.8 mPa·s
348.15 K, 275300 kPa | 157.1 mPa·s
348.15 K, 300000 kPa | 201.5 mPa·s
348.15 K, 319700 kPa | 244.4 mPa·s
348.15 K, 339600 kPa | 295.8 mPa·s
348.15 K, 359000 kPa | 356.2 mPa·s
348.15 K, 378600 kPa | 428.5 mPa·s
353.15 K, 100 kPa | 4.692 mPa·s and 4.695 mPa·s

Settings | mass density [kg/m3]
273.15 K | 821.58
283.15 K | 815.16
288.15 K | 811.95
293.15 K | 808.74
298.15 K | 805.55
303.15 K | 802.34
313.15 K | 795.93
323.15 K | 789.53
333.15 K | 783.14
343.15 K | 776.77
353.15 K | 770.42
363.15 K | 764.06

From the NIST ThermoML archive (doi:10.1021/je900284z)
